Laboratory results as given in patent US20040048849A1, “Cyclin-dependent kinase (cdk) and glycolene synthase kinase-3 (gsk-3) inhibitors” (priority 2000, published 2004).

Test system: DU145 (human prostate cancer cells)
Assay: Antiproliferative activity, WST1 colorimetric test, DU145
Type: cell-based
Conditions: 96 hours treatment, 0 to 25 μM
Procedure: Characterization of the Antiproliferative Activity:
By way of example, the effect of a treatment on two human cell lines Mia-Paca2 and DU145 by the compounds of Examples 1 to 33 described previously will be studied. The cell lines DU145 (human prostate cancer cells) and Mia-PaCa2 (human pancreas cancer cells) were acquired from the American Tissue Culture Collection (Rockville, Md., USA). The cells placed in 95 μl of Dulbecco's Modified Eagle's medium (Gibco-Brl, Cergy-Pontoise, France) completed with 10% foetal calf serum inactivated by heating (Gibco-Brl, Cergy-Pontoise, France), 100 units/l of penicillin and 100 μg/ml/l of streptomycin (Gibco-Brl, 10378-057, Cergy-Pontoise, France), and 2 mM of glutamine (Gibco-Brl, Cergy-Pontoise, France) were seeded on a 96-well plate on day 0. The cells were treated on day 1 for 96 hours with 5 μl of each of the compounds at concentrations increasing from 0 to 25 μM final concentration. At the end of this period, quantification of cell proliferation is evaluated by a colorimetric test based on the cleavage of the tetrazolium salt WST1 by the mitochondrial dehydrogenases in viable cells leading to the formation of formazan (Boehringer Mannheim, Meylan, France). These tests are carried out in duplicate with 8 determinations per concentration tested. […]

## CC[C@H](CO)Nc1nc(NCc2ccccc2)c2ncn(C(C)C)c2n1 [Roscovitine]
  antiproliferative activity regarding DU-145 cells: no antiproliferative activity
